According to US20240133884A1, “COMPOSITIONS AND METHODS FOR DETECTING TRYPANOSOMA CRUZI INFECTION” (University of Georgia Research Foundation, Inc., priority 2022, published 2024):

Tests used:
[1] = system: T. cruzi intracellular amastigotes; assay: In vitro anti-T. cruzi amastigote growth inhibition assay (tdTomato fluorescence, 72 hours, Vero cells); type: cell-based, Trypanosoma cruzi; conditions: for in vitro activity against T. cruzi: in words
Experimental: (§1) The in vitro anti-T. cruzi amastiogote activity assay was performed and optimized based on the protocol described previously (Canavaci, et al., PLoS neglected tropical diseases 4, e740 (2010)). The change in tdTomato fluorescence intensity was determined as a measurement of growth over 72 hours of culture. For assaying drug effects on extracellular amastigotes, trypomastigotes were collected from infected Vero cell cultures and converted in acidic media as previously described (Tomlinson, et al., Parasitology 110 (Pt 5), 547-554 (1995)). Amastigotes (50,000/well) were incubated with 2-fold serial dilutions of compounds for 48 hours. The ATP production was used as an indication of growth in this case, and was measured by ATPlite Luminescence ATP Detection Assay System (PerkinElmer). Both fluorescence and luminescence were read using a BioTek Synergy Hybrid Multi-Mode reader equipped with the software Gene5 v 2.0 (BioTek). The dose-response curve was generated by […] analysis with GraphPad Prism v9.4.0 (GraphPad Software). IC50 was determined as the drug concentration that was required to inhibit 50% of growth compared to that of parasites with no drug exposure.

[2] = in vivo
T. cruzi (Brazil strain) = conditions: cited from earlier work
T. cruzi [3] = conditions: T. cruzi-infected NHPs; cited from earlier work
[4] = system: T. cruzi extracellular amastigotes; assay: Extracellular amastigote assay (ATPlite ATP production, 48 hours); type: cell-based, Trypanosoma cruzi; conditions: relative to parent ester (FIG. 2A)
Experimental: as §1

CPSF3 = conditions: T. b. brucei; cited from earlier work
[5] = system: mammalian enzymes, receptors and ion channels; assay: Safety pharmacology: affinity for a broad array of mammalian enzymes, receptors and ion channels; type: binding
Standard Ames study = type: cell-based
cytochrome P450 enzymes = assay: Inhibition of representative cytochrome P450 enzymes; type: in vitro ADME; conditions: 10 uM
[6] = High dose 7-day toxicology studies in rats; type: in vivo; conditions: high dose 7-day toxicology studies, oral
[7] = system: T. cruzi (Colombiana strain); assay: BNZ prophylaxis in mice (bioluminescence imaging, T-cell phenotyping, tissue qPCR); type: in vivo, Trypanosoma cruzi; conditions: for luciferase signal: 100 mg/kg twice weekly
Experimental: For the studies in mice, female mice, 8-12 weeks old were used for infections throughout the study. Sample sizes were determined based upon knowledge of heterogeneity in parasite burden during T. cruzi infection and published reports using similar experimental strategies. Data collected were included if productive T. cruzi infection was established (visualized by luciferase imaging or flow cytometry by detection of T. cruzi-tetramer specific CD8^+ T cells). The investigators were not blinded during the collection or analysis of data and mice were randomly assigned to treatment groups prior to the start of each experiment.
C57BL/6J (Stock No:000664) mice (C57BL/6 wild-type) were purchased from The Jackson Laboratory (Bar Harbor, ME) and C57BL/6J-IFN-gamma knockout mice (also known as B6.129S7-Ifngtm1 Ts/J; The Jackson Laboratory stock No 002287) were bred in-house at the University of Georgia Animal Facility. All the animals were maintained in the University of Georgia Animal Facility under specific pathogen-free conditions. T. cruzi tissue culture trypomastigotes of the Colombiana strain co-expressing firefly luciferase and tdTomato reporter proteins, generated as described previously (Sanchez-Valdez, et al., eLife 7 (2018), Bustamante, et al., Sci Transl Med. 12(567) 2020)), were maintained through passage in Vero cells (American Type Culture Collection (Manassas, VA)) cultured in RPMI 1640 medium with 10% fetal bovine serum at 37° C. in an atmosphere of 5% CO2. Mice were infected intraperitoneally with 10^3 tissue culture trypomastigotes of T. cruzi. This study was carried out in strict accordance with the Public Health Service Policy on Humane Care and Use of Laboratory Animals and Association for Assessment and Accreditation of Laboratory Animal Care accreditation guidelines. The protocol was approved by the University of Georgia Institutional Animal Care and Use Committee.
Mice were treated with benznidazole twice weekly at a 100 mg/kg/day and infected midway during the 3rd week of treatment (FIG. 8A). Benznidazole (BNZ—Elea Phoenix, Buenos Aires, Argentina) was prepared by pulverization of tablets followed by suspension in an aqueous solution of 1% sodium carboxymethylcellulose with 0.1% Tween 80 and delivered orally by gavage at a concentration dosage of 100 mg/kg of body weight. Each mouse received 0.2 ml of this suspension. Luciferase-expressing parasites were quantified in mice by bioluminescent detection. Mice were injected intraperitoneally with D-luciferin (150 mg/kg; PerkinElmer, Waltham, MA) and anesthetized using 2.5% (vol/vol) gaseous isofluorane in oxygen prior to imaging on an IVIS Lumina II imager (Xenogen, Alameda, CA) for an exposure time of 5 minutes, as previously described (Canavaci, et al., PLoS neglected tropical diseases 4(7):e740 (2010)). Quantification of bioluminescence and data analysis was performed using Aura Imaging Software version 4.0.7 (Spectral Instruments Imaging, Tucson, AZ).
Whole blood was incubated with a major histocompatibility complex I (MHC I) tetramer containing the T. cruzi transialidase TSKB20 peptide (ANYKFTLV (SEQ ID NO:124)/Kb) labeled with BV421 (Tetramer Core Facility at Emory University, Atlanta, GA) and the following labeled antibodies: anti-CD8 FITC, anti-CD4 APC EF780, anti-CD127 PE (BD Bioscience, San Jose, CA). At least 500,000 cells were acquired using a CyAn ADP flow cytometer (Beckman Coulter, Hialeah, Florida) and analyzed with FlowJo software v10.6.1 (Treestar, Inc., Ashland, OR).
[…]

T. cruzi [8] = assay: BNZ prophylaxis / treatment in kennel dogs (multiplex serology, blood PCR); type: in vivo, Trypanosoma cruzi; conditions: for impact of prophylaxis on new infections: high intensity transmission setting
Description: For studies in dogs, a small network of kennels was formed in central and south Texas with a history of triatomine vector occurrence and canine Chagas disease with owners who were willing to participate in the study. Kennels are identified through (i) canine patients with Chagas disease presenting to the cardiology unit at the TAMU VMTH and (ii) the TAMU Kissing Bug Community Science program, in which many dog owners submit triatomines collected from large kennel environments. At these large kennels, dogs are primarily bred and trained to aid hunting parties. Approximately 40-80 dogs reside within each kennel, and the predominant breeds include Belgian Malinois, Brittany spaniels, English pointers, German shorthaired pointers, Labrador retrievers, and hound dogs. Dogs >3 months of age, including males and females, were eligible for enrollment. Dogs identified after blood screening as seronegative based on multiplex serology and PCR-negative were randomly assigned to treatment groups. Neither the investigators, private veterinarian providing care to the dogs in the field, nor the dog owners were blinded to the treatment groups and no placebo was given to control dogs. Informed consent was obtained from dog owners prior to their participation, and this study was approved by the Texas A&M University Institutional Committee on Animal Use and Care and the Clinical Research Review Committee.
The limit of detection was set at the lowest standard of 0.0017 parasite equivalents per 50 ng of DNA. For detection of T. cruzi infection in dogs, DNA was extracted from 250 uL of the buffy coat fraction of EDTA-treated blood using the E.Z.N.A Tissue DNA kit (Omega Bio-Tek, Norcross, GA, USA) according to the manufacturer's protocol except 50 μL of elution buffer was used. T. cruzi-negative controls (phosphate buffered saline) were included in the DNA extractions. Samples were tested using qPCR for the presence of T. cruzi satellite DNA using the Cruzi 1/2 primer set and Cruzi 3 probe in a real-time assay, which amplifies a 166-bp segment of a repetitive nuclear DNA (Piron, et al., Acta tropica. 103(3):195-200 (2007), Cummings & Tarleton, Molecular and biochemical parasitology 129(1):53-9 (2003)) as previously described (Meyers, et al., PLoS neglected tropical diseases 11(8) 2017)). A sample was considered T. cruzi-positive if the Ct value was <35 (Curtis-Robles, et al., Vet Parasitol Reg Stud Reports 12:85-8 (2018)).
The 67 animals considered infection-negative were randomly assigned to either a control (no therapy) or a prophylactic group, which received twice weekly doses of BNZ at a level of not less than 10 mg/kg. This dosage is approximately the normal daily dose previously used (mostly ineffectively) to attempt drug-cure in dogs (Guedes, et al., Acta tropica. 84(1):9-17 (2002), Santos, et al., The Journal of antimicrobial chemotherapy. 67(8):1987-95 (2012), Cunha, et al., Experimental parasitology. 204:107711 (2019)). Dogs in these groups were then re-sampled 10-12 weeks (considered the midpoint of the transmission season) and ˜24 weeks (end of season).

[9] = dog BEHE4, 30 mg/kg twice a week, 24 week sample point

Cc1c(C(=O)NC(C(=O)OCCN2CCOCC2)C(C)C)ccc2c1B(O)OC2 (centres unmarked) [AN15129]
in vitro activity against T. cruzi [1]: less active than neutral compounds

O=C(Nc1ccc2c(c1)B(O)OC2)c1ccc(F)cc1C(F)(F)F [AN4169]
therapeutic margin in rodent tolerability studies [2]: insufficient therapeutic margin | cure of mice (T. cruzi (Brazil strain); mice infected with T. cruzi Brazil strain): 100%

CC[C@@H]([C@H](C)O)n1ncn(-c2ccc(N3CCN(c4ccc(OC[C@@H]5CO[C@@](Cn6cncn6)(c6ccc(F)cc6F)C5)cc4)CC3)cc2)c1=O [posaconazole]
failures in treatment trials (T. cruzi [3]): 100%

Cc1c(C(=O)N[C@H](C(=O)O)C(C)C)ccc2c1B(O)OC2 [AN14667]
reduced activity on intracellular amastigotes ([1]; relative to parent ester (FIG. 2A)): ~1000 fold | reduced activity on extracellular amastigotes [4]: ~1000 fold

Cc1c(C(=O)N[C@H](C(=O)OCc2ccc(F)cc2)C(C)C)ccc2c1B(O)OC2 [AN11736]
effect of CPSF3 overexpression on killing (CPSF3): induced resistance to killing

Cc1c(C(=O)N[C@H](C(=O)OCc2ccc(F)cc2)C(C)(C)O)ccc2c1B(O)OC2 [AN14817]
affinity for a broad array of mammalian enzymes, receptors and ion channels [5]: little to no affinity | genotoxicity, Ames (Standard Ames study): non-genotoxic | inhibition of representative cytochrome P450 enzymes (cytochrome P450 enzymes): did not demonstrate significant inhibition | dose proportionality of exposure [6]: non-dose proportional exposure

Cc1c(C(=O)N[C@H](C(=O)OCc2ccc(S(C)(=O)=O)cc2)C(C)C)ccc2c1B(O)OC2 [AN14561]
in vitro activity against T. cruzi [1]: significantly less potent

CC(C)[C@H](NC(=O)c1ccc2c(c1)B(O)OC2)C(=O)OCc1ccccc1 [AN10443]
in vitro activity against T. cruzi [1]: submicromolar activity | metabolic stability in mouse S9 liver fraction assay: good metabolic stability

Cc1c(C(=O)N[C@H](C(=O)OCc2ccccc2)C(C)C)ccc2c1B(O)OC2 [AN11735]
IC50 ([1]; read-out: in vitro activity against T. cruzi (IC50)): < 10 nM

O=C(Cn1ccnc1[N+](=O)[O-])NCc1ccccc1 [benznidazole]
mice systemically parasite-positive ([7]; IFNγ KO mice, within 4 weeks of termination of prophylaxis): 4 of 5 | overall effect of prophylaxis regimen ([7]; WT mice): prevented or truncated an infection in most cases | luciferase signal ([7]; WT mice, day 14 post-exposure or beyond): none of the mice in the BNZ-treated WT group had a detectable luciferase signal above background | mice negative for T. cruzi DNA (qPCR of skeletal muscle, heart, gut) ([7]; WT mice, week 33): at least 3 of the 5 | fraction of CD127+ cells in the TSKb20-specific CD8+ T cell population ([7]; mice under prophylaxis vs no prophylaxis, through 21st week): substantially higher fraction of CD127+ cells | luciferase signal ([7]; some IFNγ KO mice, day 14 post-exposure (not at 12 weeks)): low level signal | blood PCR (T. cruzi [8]; [9]): PCR negative | serology (T. cruzi [8]; [9]): seronegative | impact of prophylaxis on new infections (T. cruzi [8]; dogs): no impact on the incidence of new infections | impact of prophylaxis on new infections (T. cruzi [8]; dogs, listed as BNZ): no impact on the number of new infections | new infections (T. cruzi [8]; dogs, prophylaxis group, twice weekly not less than 10 mg/kg): 26.5% | cure of established infections (T. cruzi (Brazil strain); mice, weekly or twice weekly high dose (2.5-5× normal daily dose)): could cure established infections | generation of cure with 20 days of treatment (T. cruzi (Brazil strain); mice): only partially effective | failures in treatment trials (T. cruzi [3]): > 60%
